In patent US6503721B2, “Screen for compounds with affinity for nucleic acids” (Anadys Pharmaceuticals, Inc., priority 1995, dated 2003):
pIC50: −log10 of the molar value.

Columns and labels:
[1] = test system: AB-RNA; assay: Hybrid capture on streptavidin-coated paramagnetic beads (AB-RNA : biotinylated oligonucleotide RBS-96-60); type: binding
Source text: SA coated paramagnetic beads: The washing step required when using SA-beads can be facilitated by using paramagnetic-SA coated beads (PMP-SA). These beads are commercially available (Promega, Madison, Wis.) and can be concentrated and held by a magnet. Positioning the magnet under the plate during washing steps concentrates and retains the beads at the bottom of the well during the washing procedure thus preventing loss of beads and allowing faster operation. An example of the use of this method is described in Example 2 below. The [^32P]-labelled ATP-binding RNA described in Example 1 above (AB-RNA) was heat denatured at 90° C. for 2 min in binding buffer (50 mM Tris pH 7.5, 200 mM NaCl, and 10 mM MgCl2) and chilled on ice for 2 min. 37.5 μl aliquots of the heat denatured AB-RNA were then mixed with 12.5 μl of a solution containing 12.5 pmol of the 5′-biotinylated oligonucleotide RBS-96-60 (having a nucleotide sequence identical to RBS-87-8A described in Example 1 above) and varying amounts of ATP or UTP. After a brief incubation at room temperature, the mixture was transferred into 96-well plates containing 0.5 mg paramagnetic beads coated with streptavidin (PMP-SA) (Promega, Madison, Wis.). Plates were incubated at room temperature for 15 min to allow binding. […] [^32P]-labelled AB-RNA bound to the beads was then quantitated by Cerenkov counting in a Microbetta LSC-counter (Wallac).

[2] = target: AB-RNA; assay: SCAN nitrocellulose filter binding assay, AB-RNA and biotinylated oligonucleotide 67B
Experimental: Adsorption to nitrocellulose filters: This embodiment takes advantage of the fact that most proteins tightly adsorb to nitrocellulose filters. When using a biotinylated oligonucleotide and a labelled target RNA, free SA or a SA derivative such as SA:alkaline phosphatase conjugate (SA:AP), SA:β-galactosidase (SA:BG), or other SA-conjugate or fusion protein, is added to the reaction to allow binding to the biotin moiety in the oligonucleotide. Subsequently, the reaction is filtered through 96-well nitrocellulose filter plates (Millipore, Bedford, Mass., HATF or NC). Labeled target RNA hybridized to the biotinylated oligonucleotide is retained in the filter through the adsorption of SA or its derivative to the filter, while unhybridized RNA passes through. […] Therefore, the use of SA fusion proteins or conjugates is preferred. An example of the use of this method is described in Example 3 below. SCAN reactions containing 100 nM radiolabeled AB-RNA and 250 nM biotinylated oligonucleotide 67B were incubated with increasing amounts of ATP or UTP as test ligands. In the absence of test ligand, 70% of AB-RNA was retained on NC-filters. Inhibition of RNA retention on NC-filters Inhibition of RNA retention on NC-filters (% inhibtion) was obtained as (1−(R/R0)×100), where R0 is retention without test ligand and R is retention with test ligand. […]

[3] = test system: HIV RRE RNA; assay: SCAN nitrocellulose filter binding assay, RRE RNA and biotinylated complementary oligonucleotide; settings: heterologous RNA target, FIG. 17
Experimental: Adsorption to nitrocellulose filters: This embodiment takes advantage of the fact that most proteins tightly adsorb to nitrocellulose filters. When using a biotinylated oligonucleotide and a labelled target RNA, free SA or a SA derivative such as SA:alkaline phosphatase conjugate (SA:AP), SA:β-galactosidase (SA:BG), or other SA-conjugate or fusion protein, is added to the reaction to allow binding to the biotin moiety in the oligonucleotide. Subsequently, the reaction is filtered through 96-well nitrocellulose filter plates (Millipore, Bedford, Mass., HATF or NC). Labeled target RNA hybridized to the biotinylated oligonucleotide is retained in the filter through the adsorption of SA or its derivative to the filter, while unhybridized RNA passes through. […] Therefore, the use of SA fusion proteins or conjugates is preferred. An example of the use of this method is described in Example 3 below.
The target RNA was an RNA molecule containing the binding site for the HIV Rev protein (Rev Responsive Element, RRE; 5′-GAAUACUAUGGGCGCAGCGUCAAUGACGCUGACGGUACAGGCCAGACAAUUAUUGUCUGGUAUAGU-3′- SEQ ID NO:2) which had been labelled with 32P as described in Example 1 above. […] The filtrate was further washed with 400 μl of the same buffer and the amount of RRE retained in the filter was determined by liquid scintillation counting. […]

[4] = test system: AB RNA; assay: SCAN assay under equilibrium conditions (dissociation of pre-formed AB RNA:oligonucleotide complexes); type: binding; settings: 100 μM ATP, 20 nM AB RNA, 100 nM oligonucleotide
Source text: A screening assay having this configuration has the advantage of removing time constraints for various steps in the assay. In addition, thermodynamic parameters associated with ligand binding can be more easily derived from the results of the assay. Using a series of oligonucleotides of various length and target sites comprising AB RNA, a group of oligonucleotides has been identified that fully equilibrate with ATP (an example is shown in FIG. 20, top panel). The oligonucleotide used is complementary to the sequence shown in bold-faced letters (FIG. 20, top panel). Target RNA:oligonucleotide complexes were pre-formed by incubated a solution containing 100 nM AB RNA and 500 nM oligonucleotide for 2 h at 25° C. Dissociation was initiated by diluting the reaction 5-fold in the presence or absence of 100 μM ATP (resulting in final concentrations of AB RNA, 20 nM; oligonucleotide, 100 nM; ATP, 100 μM). Binding of hybrids to nitrocellulose filters was performed as described above.

[5] = test system: AB RNA; assay: UV absorbance (260 nM) thermal melting of AB RNA; type: binding
Experimental: The experiment described below was performed to monitor the stabilization of an RNA structure upon ligand binding. In this experiment, absorbance at 260 nm was monitored as the temperature of the sample was increased. The increase in temperature causes the RNA to unfold, thereby allowing individual bases to absorb more ultraviolet light.

[6] = test system: AB-RNA-F; assay: Fluorescence SCAN assay, fluorescein-labelled AB-RNA-F and unlabelled oligonucleotide 67B; type: binding; settings: for effect on fluorescence increase: FIG. 28B
Experimental: B. Experimental results: While developing a SCAN assay based on FET between 3′-fluorescein labeled AB-RNA (AB-RNA-F) and a 5′-rhodamine labeled oligonucleotide, it was unexpectedly observed in a control experiment that a substantial increase in fluorescein emission at 535 nm occurred upon addition of an oligonucleotide carrying no fluorescent labels (FIG. 28A). Reactions containing 50 mM Tris pH 7.5, 200 mM NaCl, 10 mM MgCl2, and 60 nM AB-RNA-F were monitored at 535 nm emission (485 nm excitation) in a CytoFluor II fluorescence multi-well plate reader (PerSeptive Biosystems, Framingham,Mass.) for increasing times after the addition of oligonucleotide 67B. Because of the high reproducibility and sensitivity of fluorescence spectrophotometers, a 2-fold increase in fluorescence represents more that sufficient change in signal to use it as a sensitive assay. Therefore, the effect of ATP, GTP and UTP was tested in SCAN reactions containing AB-RNA-F and the unlabeled oligonucleotide 67B (FIG. 28B).

[7] = test system: AB-RNA; assay: Gel shift assay: hybridization of radiolabelled AB-RNA to complementary DNA oligonucleotide RBS-87-8A; type: binding; settings: 30 μM ligand
Source text: A gel shift protocol, though nominally a low-throughput method, is an important tool for the initial selection of the assay configuration for oligonucleotide-based methods to be used with each particular target RNA. Typically, the target RNA is transcribed in vitro, using as template a DNA that contains the sequence for the T7-RNA polymerase promoter followed by a region encoding the target RNA, and [^32P]-UTP to produce radiolabelled RNA. Conditions for the T7 RNA polymerase transcription reaction using oligonucleotide templates have been described by Milligan et al., Nuc. Acids Res., 15: 8783, 1987. The [^32P]-labelled target RNA is optionally heat denatured at 90° C. for 2 min and chilled on ice for 2 min, after which aliquots are incubated in the absence and presence of test ligands and increasing concentrations of a complementary oligonucleotide. The reaction mixtures are then resolved in polyacrylamide native gels containing or lacking the test ligands.
AB-RNA was transcribed using as template the DNA oligonucleotide RBS-87-8A, (5′-GGAACCTTGCCGGCACCGAAGTGCCGCAGTTTCTTCCCAAGGTTCCTATAGTGAGTCGTATTA-3′-SEQ ID NO:1), which contains the sequence for the T7-RNA polymerase promoter followed by a region encoding AB-RNA. [32P]-labelled AB-RNA was obtained by including [32P]-UTP in the transcription reaction. […]

Row | Structure (SMILES) | pIC50 ([1]; PMP-SA beads, room temperature, read-out: ligand concentration reducing the amount of hybrids formed by 50%) | pIC50 ([2]; 100 nM AB-RNA, 250 nM oligonucleotide 67B, read-out: ligand concentration inhibiting AB-RNA retention on NC-filters by 50%) | specificity factor ATP versus UTP ([2]; ratio of concentrations for 50% inhibition) [fold] | effect on RRE based SCAN reactions [3] | inhibition of oligo:RNA complex [4] | temperature of new transition in first derivative of absorbance, seen only with ligand ([5]; absorbance at 260 nm, FIG. 21) [°C] | effect of ligand on RNA structure ([5]; thermal melting) | pIC50 ([6]; 60 nM AB-RNA-F, emission 535 nm, read-out: IC50 for inhibition of fluorescence increase) | effect on fluorescence increase [6] | competition with the oligonucleotide for binding to AB-RNA [7] | effect on amount of hybrids bound to PMP-SA beads ([1]; increasing ligand concentrations)
1 | Nc1ncnc2c1ncn2[C@@H]1O[C@H](COP(=O)(O)OP(=O)(O)OP(=O)(O)O)[C@@H](O)[C@H]1O [ATP] | 4.60 | 2.30 | 100 | no effect | approximately 60% | 40 | stabilizes the RNA structure | 2.30 | – | – | –
2 | Nc1nc2c(ncn2[C@@H]2O[C@H](COP(=O)(O)OP(=O)(O)OP(=O)(O)O)[C@@H](O)[C@H]2O)c(=O)[nH]1 [GTP] | – | – | – | – | – | – | – | – | no effect at all | – | –
3 | O=c1ccn([C@@H]2O[C@H](COP(=O)(O)OP(=O)(O)OP(=O)(O)O)[C@@H](O)[C@H]2O)c(=O)[nH]1 [UTP] | – | – | – | – | – | – | – | – | some effect at much higher concentrations | unable to compete | no effect
